Laboratory results published in US9963456B2, “Pyrrolopyrimidine compound or salt thereof and compositions containing the pyrrolopyrimidine compound or salt thereof” (TAIHO PHARMACEUTICAL CO., LTD., priority 2014, dated 2018).

target: NAE (heterodimer of APPBP1 and UBA3) (Homo sapiens (Human), UniProt Q8TBC4); assay: Nedd8 conjugation inhibitory activity (AlphaScreen assay); assay type: biochemical; conditions: purified NAE, GST-UBC12, Biotin-Nedd8, ATP
Sequence (Q8TBC4 whole entry): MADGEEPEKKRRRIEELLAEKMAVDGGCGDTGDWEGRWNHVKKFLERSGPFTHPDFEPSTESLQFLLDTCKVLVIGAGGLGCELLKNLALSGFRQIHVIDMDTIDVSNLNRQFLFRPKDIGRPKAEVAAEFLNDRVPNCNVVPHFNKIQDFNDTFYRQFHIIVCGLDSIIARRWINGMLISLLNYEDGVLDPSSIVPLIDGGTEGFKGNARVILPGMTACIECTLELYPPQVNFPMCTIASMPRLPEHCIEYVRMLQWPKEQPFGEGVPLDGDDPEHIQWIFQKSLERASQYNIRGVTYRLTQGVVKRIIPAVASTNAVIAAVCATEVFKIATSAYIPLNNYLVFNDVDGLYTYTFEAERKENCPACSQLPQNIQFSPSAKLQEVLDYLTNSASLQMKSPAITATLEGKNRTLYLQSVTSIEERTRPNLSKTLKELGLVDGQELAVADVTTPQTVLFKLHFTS
Sequence (Q13564 whole entry partner): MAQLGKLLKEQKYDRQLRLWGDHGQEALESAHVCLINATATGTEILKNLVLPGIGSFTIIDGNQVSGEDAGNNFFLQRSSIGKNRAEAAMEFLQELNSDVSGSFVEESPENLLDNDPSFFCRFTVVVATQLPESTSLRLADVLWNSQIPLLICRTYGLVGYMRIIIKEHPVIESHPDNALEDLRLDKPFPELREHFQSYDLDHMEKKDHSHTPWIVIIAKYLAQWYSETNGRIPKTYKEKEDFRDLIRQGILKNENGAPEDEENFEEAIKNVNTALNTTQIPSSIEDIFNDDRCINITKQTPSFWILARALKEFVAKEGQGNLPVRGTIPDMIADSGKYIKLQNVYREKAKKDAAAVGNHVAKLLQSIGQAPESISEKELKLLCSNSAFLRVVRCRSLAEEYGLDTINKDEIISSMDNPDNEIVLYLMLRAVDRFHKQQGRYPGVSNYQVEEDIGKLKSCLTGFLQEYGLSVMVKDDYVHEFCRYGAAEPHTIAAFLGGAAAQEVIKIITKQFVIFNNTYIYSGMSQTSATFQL

| SMILES | IC50 |
| --- | --- |
| Cc1ccccc1-c1nc(-c2cn([C@@H]3O[C@H](CNS(N)(=O)=O)[C@@H](O)[C@H]3O)c3ncnc(N)c23)cs1 [Example 2, 4-[4-Amino-7-[(2R,3R,4S,5R)-3,4-dihydroxy-5-[(sulfamoylamino)methyl]tetrahydrofuran-2-yl]pyrrolo[2,3-d]pyrimidin-5-yl]-2-(o-tolyl)thiazole] | 0.0071 µM |
| Nc1ncnc2c1c(C#CC1(c3ccccc3)CC1)cn2[C@@H]1O[C@H](CNS(N)(=O)=O)[C@@H](O)[C@H]1O [Example 10, 4-Amino-7-[(2R,3R,4S,5R)-3,4-dihydroxy-5-[(sulfamoylamino)methyl]tetrahydrofuran-2-yl]-5-[2-(1-phenylcyclopropyl)ethynyl]pyrrolo[2,3-d]pyrimidine] | 0.024 µM |
| CCOc1cc(N2CCCCC2)cc(F)c1C#Cc1cn([C@@H]2C[C@H](CNS(N)(=O)=O)[C@@H](O)[C@H]2O)c2ncnc(N)c12 [Example 106, 4-Amino-7-[(1R,2S,3R,4R)-2,3-dihydroxy-4-[(sulfamoylamino)methyl]cyclopentyl]-5-[2-[2-ethoxy-6-fluoro-4-(1-piperidyl)phenyl]ethynyl]pyrrolo[2,3-d]pyrimidine] | 0.028 µM |
| CCOc1cc(N2C3CCC2COC3)cc(F)c1C#Cc1cn([C@@H]2C[C@H](CNS(N)(=O)=O)[C@@H](O)[C@H]2O)c2ncnc(N)c12 [Example 110, 8-[4-[2-[4-Amino-7-[(1R,2S,3R,4R)-2,3-dihydroxy-4-[(sulfamoylamino)methyl]cyclopentyl]pyrrolo[2,3-d]pyrimidin-5-yl]ethynyl]-3-ethoxy-5-fluoro-phenyl]-3-oxa-8-azabicyclo[3,2,1]octane] | 0.013 µM |
| CCOc1cc(N2CCOCC2)cc(F)c1C#Cc1cn([C@@H]2C[C@H](CNS(N)(=O)=O)[C@@H](O)[C@H]2O)c2ncnc(N)c12 [Example 112, 4-[4-[2-[4-Amino-7-[(1R,2S,3R,4R)-2,3-dihydroxy-4-[(sulfamoylamino)methyl]cyclopentyl]pyrrolo[2,3-d]pyrimidin-5-yl]ethynyl]-3-ethoxy-5-fluoro-phenyl]morpholine] | 0.015 µM |
| Nc1ncnc2c1c(C#Cc1c(F)cc(N3CC[C@@H](F)C3)cc1F)cn2[C@@H]1C[C@H](CNS(N)(=O)=O)[C@@H](O)[C@H]1O [Example 115, 4-Amino-5-[2-[2,6-difluoro-4-[(3R)-3-fluoropyrrolidin-1-yl]phenyl]ethynyl]-7-[(1R,2S,3R,4R)-2,3-dihydroxy-4-[(sulfamoylamino)methyl]cyclopentyl]pyrrolo[2,3-d]pyrimidine] | 0.004 µM |
| Nc1ncnc2c1c(C#Cc1cccc3c1S(=O)(=O)CC3)cn2[C@@H]1C[C@H](CNS(N)(=O)=O)[C@@H](O)[C@H]1O [Example 117, 4-Amino-7-[(1R,2S,3R,4R)-2,3-dihydroxy-4-[(sulfamoylamino)methyl]cyclopentyl]-5-[2-(1,1-dioxo-2,3-dihydrobenzothiophen-7-yl)ethynyl]pyrrolo[2,3-d]pyrimidine] | 0.0043 µM |
| Nc1ncnc2c1c(C#Cc1c(F)cc(N3CCC3)cc1F)cn2[C@@H]1C[C@H](CNS(N)(=O)=O)[C@@H](O)[C@H]1O [Example 118, 4-Amino-5-[2-[4-(azetidin-1-yl)-2,6-difluoro-phenyl]ethynyl]-7-[(1R,2S,3R,4R)-2,3-dihydroxy-4-[(sulfamoylamino)methyl]cyclopentyl]pyrrolo[2,3-d]pyrimidine] | 0.0068 µM |
| Nc1ncnc2c1c(C#Cc1c(F)cc(N3CCC(O)CC3)cc1F)cn2[C@@H]1C[C@H](CNS(N)(=O)=O)[C@@H](O)[C@H]1O [Example 119, 4-Amino-5-[2-[2,6-difluoro-4-(4-hydroxy-1-piperidyl)phenyl]ethynyl]-7-[(1R,2S,3R,4R)-2,3-dihydroxy-4-[(sulfamoylamino)methyl]cyclopentyl]pyrrolo[2,3-d]pyrimidine] | 0.0042 µM |
| Nc1ncnc2c1c(C#Cc1cccc3c1S(=O)(=O)CCC3)cn2[C@@H]1C[C@H](CNS(N)(=O)=O)[C@@H](O)[C@H]1O [Example 123, 4-Amino-7-[(1R,2S,3R,4R)-2,3-dihydroxy-4-[(sulfamoylamino)methyl]cyclopentyl]-5-[2-(1,1-dioxo-3,4-dihydro-2H-thiochromen-8-yl)ethynyl]pyrrolo[2,3-d]pyrimidine] | 0.0091 µM |
| CCOc1cccc(F)c1C#Cc1cn([C@H]2C[C@H](O)[C@@H](CNS(N)(=O)=O)O2)c2ncnc(N)c12 [Example 127, 4-Amino-5-[2-(2-ethoxy-6-fluoro-phenyl)ethynyl]-7-[(2R,4S,5R)-4-hydroxy-5-[(sulfamoylamino)methyl]tetrahydrofuran-2-yl]pyrrolo[2,3-d]pyrimidine] | 0.019 µM |
| CSc1cccc(F)c1C#Cc1cn([C@@H]2C=C(CNS(N)(=O)=O)[C@@H](O)[C@H]2O)c2ncnc(N)c12 [Example 130, 4-Amino-7-[(1R,4R,5S)-4,5-dihydroxy-3-[(sulfamoylamino)methyl]cyclopent-2-en-1-yl]-5-[2-(2-fluoro-6-methylsulfanyl-phenyl)ethynyl]pyrrolo[2,3-d]pyrimidine] | 0.004 µM |
| Nc1ncnc2c1c(C#Cc1ccccc1)cn2[C@H]1C[C@H](O)[C@@H](COS(N)(=O)=O)O1 [Example 134, [(2R,3S,5R)-5-[4-Amino-5-(2-phenylethynyl)pyrrolo[2,3-d]pyrimidin-7-yl]-3-hydroxy-tetrahydrofuran-2-yl]methyl sulfamate] | 0.018 µM |
| Cc1ccc(Cn2cc(-c3cn([C@H]4C[C@H](O)[C@@H](COS(N)(=O)=O)O4)c4ncnc(N)c34)cn2)cc1C [Example 137, [(2R,3S,5R)-5-[4-Amino-5-[1-[(3,4-dimethylphenyl)methyl]pyrazol-4-yl]pyrrolo[2,3-d]pyrimidin-7-yl]-3-hydroxy-tetrahydrofuran-2-yl]methyl sulfamate] | 0.019 µM |
| Cc1ccc(Cn2cc(-c3cn([C@@H]4C[C@H](COS(N)(=O)=O)[C@@H](O)C4)c4ncnc(N)c34)cn2)cc1C [Example 138, [(1R,2S,4R)-4-[4-Amino-5-[1-[(3,4-dimethylphenyl)methyl]pyrazol-4-yl]pyrrolo[2,3-d]pyrimidin-7-yl]-2-hydroxy-cyclopentyl]methyl sulfamate] | 0.0065 µM |
| Cc1ccccc1-c1nc(-c2cn([C@H]3C[C@H](O)[C@@H](COS(N)(=O)=O)O3)c3ncnc(N)c23)cs1 [Example 139, [(2R,3S,5R)-5-[4-Amino-5-[2-(o-tolyl)thiazol-4-yl]pyrrolo[2,3-d]pyrimidin-7-yl]-3-hydroxy-tetrahydrofuran-2-yl]methyl sulfamate] | 0.017 µM |
| CCS(=O)(=O)c1cccc(F)c1C#Cc1cn([C@@H]2C[C@H](CNS(N)(=O)=O)[C@@H](O)[C@H]2O)c2ncnc(N)c12 [Example 142, 4-Amino-7-[(1R,2S,3R,4R)-2,3-dihydroxy-4-[(sulfamoylamino)methyl]cyclopentyl]-5-[2-(2-ethylsulfonyl-6-fluoro-phenyl)ethynyl]pyrrolo[2,3-d]pyrimidine] | 0.009 µM |

target: carbonic anhydrase II (Homo sapiens (Human), UniProt P00918); assay: Carbonic anhydrase II enzyme activity inhibition (4-NPA esterase activity); assay type: biochemical; conditions: 4-nitrophenyl acetate esterase activity, absorbance at 405 nm

| IC50 | SMILES |
| --- | --- |
| > 1 µM | Nc1ncnc2c1c(C#Cc1ccc(OCc3ccccc3)cc1)cn2[C@@H]1O[C@H](CNS(N)(=O)=O)[C@@H](O)[C@H]1O [Example 3, 4-Amino-5-[2-(4-benzyloxyphenyl)ethynyl]-7-[(2R,3R,4S,5R)-3,4-dihydroxy-5-[(sulfamoylamino)methyl]tetrahydrofuran-2-yl]pyrrolo[2,3-d]pyrimidine] |
| > 1 µM | Nc1ncnc2c1c(C#Cc1cccc3ccccc13)cn2[C@@H]1O[C@H](CNS(N)(=O)=O)[C@@H](O)[C@H]1O [Example 6, 4-Amino-7-[(2R,3R,4S,5R)-3,4-dihydroxy-5-[(sulfamoylamino)methyl]tetrahydrofuran-2-yl]-5-[2-(1-naphthyl)ethynyl]pyrrolo[2,3-d]pyrimidine] |
| > 1 µM | Nc1ncnc2c1c(-c1coc(-c3ccccc3)n1)cn2[C@@H]1O[C@H](CNS(N)(=O)=O)[C@@H](O)[C@H]1O [Example 12, 4-[4-Amino-7-[(2R,3R,4S,5R)-3,4-dihydroxy-5-[(sulfamoylamino)methyl]tetrahydrofuran-2-yl]pyrrolo[2,3-d]pyrimidin-5-yl]-2-phenyl-oxazol] |
| > 1 µM | Nc1ncnc2c1c(C#Cc1ccccc1OC(F)(F)F)cn2[C@@H]1O[C@H](CNS(N)(=O)=O)[C@@H](O)[C@H]1O [Example 14, 4-Amino-7-[(2R,3R,4S,5R)-3,4-dihydroxy-5-[(sulfamoylamino)methyl]tetrahydrofuran-2-yl]-5-[2-[2-(trifluoromethoxy)phenyl]ethynyl]pyrrolo[2,3-d]pyrimidine] |
| > 1 µM | Nc1ncnc2c1c(C#CCc1ccccc1F)cn2[C@@H]1O[C@H](CNS(N)(=O)=O)[C@@H](O)[C@H]1O [Example 36, 4-Amino-7-[(2R,3R,4S,5R)-3,4-dihydroxy-5-[(sulfamoylamino)methyl]tetrahydrofuran-2-yl]-5-[3-(2-fluorophenyl)prop-1-ynyl]pyrrolo[2,3-d]pyrimidine] |
| > 1 µM | Nc1ncnc2c1c(C#Cc1c(F)cc(N3CC(O)C3)cc1F)cn2[C@@H]1O[C@H](CNS(N)(=O)=O)[C@@H](O)[C@H]1O [Example 39, 4-Amino-5-[2-[2,6-difluoro-4-(3-hydroxyazetidin-1-yl)phenyl]ethynyl]-7-[(2R,3R,4S,5R)-3,4-dihydroxy-5-[(sulfamoylamino)methyl]tetrahydrofuran-2-yl]pyrrolo[2,3-d]pyrimidine] |
| > 1 µM | Nc1ncnc2c1c(C#CCC1CCCCC1)cn2[C@@H]1O[C@H](CNS(N)(=O)=O)[C@@H](O)[C@H]1O [Example 50, 4-Amino-5-(3-cyclohexylprop-1-ynyl)-7-[(2R,3R,4S,5R)-3,4-dihydroxy-5-[(sulfamoylamino)methyl]tetrahydrofuran-2-yl]pyrrolo[2,3-d]pyrimidine] |
| > 1 µM | CCOc1cccc(F)c1C#Cc1cn([C@@H]2C=C(CNS(N)(=O)=O)[C@@H](O)[C@H]2O)c2ncnc(N)c12 [Example 129, 4-Amino-7-[(1R,4R,5S)-4,5-dihydroxy-3-[(sulfamoylamino)methyl]cyclopent-2-en-1-yl]-5-[2-(2-ethoxy-6-fluoro-phenyl)ethynyl]pyrrolo[2,3-d]pyrimidine] |

| SMILES | IC50 |
| --- | --- |
| Cc1ccccc1-c1nc(-c2cn([C@@H]3O[C@H](CNS(N)(=O)=O)[C@@H](O)[C@H]3O)c3ncnc(N)c23)cs1 [Example 2, 4-[4-Amino-7-[(2R,3R,4S,5R)-3,4-dihydroxy-5-[(sulfamoylamino)methyl]tetrahydrofuran-2-yl]pyrrolo[2,3-d]pyrimidin-5-yl]-2-(o-tolyl)thiazole] | > 1 µM |
| Nc1ncnc2c1c(C#CC1(c3ccccc3)CC1)cn2[C@@H]1O[C@H](CNS(N)(=O)=O)[C@@H](O)[C@H]1O [Example 10, 4-Amino-7-[(2R,3R,4S,5R)-3,4-dihydroxy-5-[(sulfamoylamino)methyl]tetrahydrofuran-2-yl]-5-[2-(1-phenylcyclopropyl)ethynyl]pyrrolo[2,3-d]pyrimidine] | > 1 µM |
